One data set has as its system CB2 receptors. Description: estimated affinity relative to CBD. Format: binding. The source says: Because CB2 receptors have a low affinity for CBD, large doses of CBD have increasingly advantageous pharmacological effects. However, CBD is relatively expensive, so the ratio of CBD to other components is more prone to cost/efficacy trade-offs than other components of the formulation. Alternatives can skimp on CBD and even drop the ratio of CBD-to-caffeine below the recommended 1:1 ratio, which should have acceptable effects so long as the caffeine is not in such a high dosage that it causes jitters.
A greater proportion of CBD may be desirable for the purpose of binding to theorized CBD3 receptors or other presently poorly defined receptors with less affinity for CBD. A high dose of CBD, over 100 mg up to less than 250 mg can have a sedative effect that may be effective for certain individuals, though it is unlikely desirable to reach 250 mg, which is approaching the liver enzyme inhibition dose. Although, currently marketed energy drinks have as much as 250 mg caffeine, it would be difficult to fit that much caffeine into a nurdle while maintaining a 1:1 ratio of CBD-to-caffeine (not to mention the 1:2 ratio of caffeine-to-theanine), so the upper ranges of CBD become largely irrelevant in this particular product due to volumetric constraints. […]

Data set [1] can be described thus: bioavailability after oral, mucosal/buccal or enteric delivery. Format: in vivo. The method, then: B6 helps the body produce neurotransmitters (e.g., serotonin); it can block glutamate and help the brain learn to calm. […] B6 can also be delivered enterically with nearly 100% bioavailability, as well.
In a specific implementation, microencapsulated CBD is provided as an analgesic in an edible toothpaste. In this specific implementation, 20 mg of the CBD is microencapsulated for buccal delivery to act as a localized analgesic in the mouth. CBD is degraded in the stomach but, as was discussed above, CBD is readily absorbed in mucosa. Although it is recognized not all patients will follow best practices, bioavailability estimates assume the amount of time spent brushing is 2 minutes, which is the time span over which the edible toothpaste remains in the mouth and which is long enough to make almost all of CBD formulated for buccal delivery bioavailable. Accordingly, when the product is used as directed, the CBD remains in the mouth long enough to achieve over 90% bioavailability. Thus, the amount of buccally delivered CBD can be added to that of enterically delivered CBD to determine a total systemic dose.
As with the edible toothpaste described above, a first portion of the CBD is formulated for buccal delivery and a second portion of the CBD is formulated for enteric delivery. […] CBD is degraded in the stomach but, as was discussed above, CBD is readily absorbed in mucosa. […]

A further data set deals with T1, TrpV1 receptor (Homo sapiens, UniProt Q8NER1).
T1 construct: It typically takes over 20 minutes for CBD absorbed through mucosa to provide significant pain relief; from tissue; host or cells: oral mucosa / body of the user (in vivo)
T1 sequence (Q8NER1 whole entry): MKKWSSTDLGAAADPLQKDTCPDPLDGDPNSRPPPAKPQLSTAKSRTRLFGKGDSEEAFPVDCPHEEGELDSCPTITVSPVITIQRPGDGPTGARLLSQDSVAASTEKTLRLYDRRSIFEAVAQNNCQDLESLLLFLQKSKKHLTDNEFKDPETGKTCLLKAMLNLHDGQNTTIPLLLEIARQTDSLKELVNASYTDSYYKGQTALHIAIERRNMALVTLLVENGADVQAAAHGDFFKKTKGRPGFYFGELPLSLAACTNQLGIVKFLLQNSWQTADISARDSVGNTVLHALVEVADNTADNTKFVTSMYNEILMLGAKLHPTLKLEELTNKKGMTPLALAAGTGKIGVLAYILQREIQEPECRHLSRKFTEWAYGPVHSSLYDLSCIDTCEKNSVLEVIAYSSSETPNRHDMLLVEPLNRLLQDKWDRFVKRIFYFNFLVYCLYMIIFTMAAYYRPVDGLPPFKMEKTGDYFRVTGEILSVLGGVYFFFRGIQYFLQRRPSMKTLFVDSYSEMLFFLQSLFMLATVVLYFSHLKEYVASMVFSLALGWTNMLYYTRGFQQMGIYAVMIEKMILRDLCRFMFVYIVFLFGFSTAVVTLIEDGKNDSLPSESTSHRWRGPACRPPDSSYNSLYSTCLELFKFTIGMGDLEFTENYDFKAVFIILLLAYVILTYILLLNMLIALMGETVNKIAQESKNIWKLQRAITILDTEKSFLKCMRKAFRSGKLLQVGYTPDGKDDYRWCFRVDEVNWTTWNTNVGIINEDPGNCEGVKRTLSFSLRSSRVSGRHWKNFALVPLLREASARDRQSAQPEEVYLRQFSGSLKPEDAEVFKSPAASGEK
The note with it: absorbed through mucosa; cited from earlier work.

The conditions of data set [2]: cited from earlier work.
For data set [3] the following is noted: in vivo; cited from earlier work.
For data set [4] the following is noted: mucosal quick release, retained in the mouth for several seconds; cited from earlier work.

Like-named read-outs stand apart in the source and are kept apart here.

As to 2-Lineoleoyl-glycerol, in the data set with CB2 receptors, the “affinity relative to CBD” value is recorded as ~1,000 times.
Turning to 2-Palmitolyl-glycerol, the “affinity relative to CBD” value with CB2 receptors was ~1,000 times.
With `C=C(C)[C@@H]1CCC(C)=C[C@H]1c1c(O)cc(CCCCC)cc1O` [CBD], the bioavailability entry in data set [1] (buccal delivery from edible toothpaste, estimate assumes 2 minutes brushing) is listed as “over 90%”; in data set [1] (buccal delivery from mouthwash, estimate assumes 30 seconds to one minute in the mouth), “over 90%”. For the same compound, the “time to provide significant pain relief” value at TrpV1 receptor is on record as “over 20 minutes”. Moreover, the “half-life in the bloodstream” value in data set [2] (frequent user) is 120 to 312 h; in data set [2] (infrequent user), “about 1.3 days”.
For `CC1CCC(C(C)C)C(O)C1` (stereo not drawn) [menthol], the lethal dose in data set [3] was not below 50 mg/kg.
Regarding `CCCCCCCCCCCCCCCC(=O)OCc1cnc(C)c(OC(=O)CCCCCCCCCCCCCCC)c1COC(=O)CCCCCCCCCCCCCCC` [pyridoxine tripalmitate], the bioavailable result in data set [4] was “over 90%”.

The values are drawn from patent US20230149303A1, “BUCCAL AND ENTERIC DELIVERY OF FATTY ACIDS IN FOODS AND BEVERAGES” (priority 2020, published 2023).
